Data on ten compounds can be found in PMC13289148, “Assessment of the toxic effects of parabens, commonly used preservatives in cosmetics, and their halogenated by-products on human skin and endothelial cells” (NAM journal, 2025).

The test system of one series is HEK001 cells. Briefly: Wound healing (scratch) assay, HEK001. The conditions noted are these: for proliferation rate in wound healing assay / proliferation rate / wound healing: 24 h; for proliferation rate / wound healing: HEK001, 100 µM. Format: cell-based, human. The method, then:
(§1) The human epidermal keratinocytes HEK001 (CRL-2404, ATCC, Manassas, VA) were maintained in a keratinocyte-serum-free medium supplemented with 5 ng/mL human recombinant EGF. The cells were incubated under 5 % CO2 and a 95 % humidified atmosphere at 37 °C ([Bogen et al., 2017]). HMEC-1 cells (CRL-3243, ATCC) were cultured at 37 °C in a 5 % CO2 humidified atmosphere using MCDB-131 medium supplemented with 10 % fetal bovine serum, 1 % penicillin/streptomycin, 10 mM l-glutamine, 1 μg/mL hydrocortisone, and 10 ng/mL EGF supplement.
(§2) The experiments were performed with biological (96 well plates) and technical (wells) replicates. Four to five biological replicates with four technical replicates were used to determine cytotoxicity. Ten paraben concentrations were assessed, ranging from a low human serum-relevant concentration (1 pM) to a high non-human-relevant concentration (1 mM). A solvent control of 0.6 % DMSO and a positive control of 5 % DMSO were also used. Three representative concentrations were chosen for each cell line for the wound-healing assay. Those concentrations were 1 µM, 10 µM, and 100 µM. Upon dosing, plates were returned to the incubator for a 24-hour exposure period.
(§3) As described by [Grada et al. (2017)] and [Yarrow et al. (2004)], a wound-healing assay was used to evaluate the proliferation rate of a disrupted cell monolayer. Cells were seeded at 200,000 cells/mL in 48-well plates and allowed to stabilize, reaching 90–100 % confluency within 24–72 h. Once confluent, the growth media was removed, and a scratch was created in the cell monolayer using a pipette tip. Manual disruption of the cell monolayer was chosen over the use of inserts or automated scratching devices to design experiments that are cost-effective and accessible to laboratories with limited budgets. This approach provides greater flexibility in experimental design without reliance on specialized equipment, making it a practical solution for resource-constrained settings. Additionally, the manual scratch method may better simulate real-world injury scenarios. To minimize variability, consistent pipette tip sizes were employed, experiments were performed in multiple replicates, and immediate visual inspections were conducted to ensure reproducibility and uniformity across trials. The exposure media was then applied, and cytochalasin D ([…]) was used as a positive control to inhibit wound healing by suppressing cell division via […]. Cells were incubated with exposure media for 24 h while kinetic high contrast brightfield (HCBF) images were captured every 30 min using the Lionheart FX automated microscope (Biotek, Agilent). Gen5 software analyzed the scratch area over time, measuring the reduction in cell-free area as migration occurred. All data were normalized to the solvent control for consistency.

Series [1] in a line: MTT cytotoxicity assay, HMEC-1 endothelial cells. Format: cell-based. The conditions noted are these: human, HMEC-1 dermal microvascular endothelial cells, read-out: EC50 from cytotoxicity assay, HMEC-1. The method, then:
as §1, §2
(§4) Cell viability was assessed using the MTT assay [3-(4,5-dimethylthiazol-2-yl)−2,5-diphenyltetrazolium bromide] ([Solan et al., 2022]). After 24 h of exposure, a 20 % tetrazolium dye solution was added to the cells. The NAD(P)H-dependent oxidoreductase enzymes in viable cells reduced the tetrazolium dye, producing insoluble formazan crystals visible as a purple coloration, indicative of active cellular respiration. Following the incubation period, the media was carefully removed, leaving the formazan crystals behind. To dissolve these crystals, a 1:1 solution of ethanol and DMSO was added to the plate. Absorbance was then measured at 595 nm on a spectrophotometer to quantify the extent of formazan formation (BioTek SynergyTM H1, Winooski, VT).
(§5) A 24-hour exposure period was selected to evaluate the acute toxicity of parabens on HEK001 and HMEC-1 cell lines. […] Assessing the acute effects on these less-characterized cell lines is critical for enabling meaningful comparisons across models. Additionally, acute toxicity studies minimize confounding factors such as nutrient depletion and cell overgrowth, facilitating higher-throughput screening.

Another series deals with HMEC-1 cells. Briefly: Wound healing (scratch) assay, HMEC-1. The note with it: for sensitivity at high concentration / proliferation rate / wound healing / proliferation rate relative to baseline / untreated control: HMEC-1, 100 µM; for proliferation rate in wound healing assay: HMEC-1, 1–10 µM; for proliferation rate in wound healing assay / proliferation rate / wound healing / proliferation rate relative to baseline / untreated control: 24 h. Format: cell-based, human. The method, then:
as §1, §2, §3

Series [2] in a line: MTT cytotoxicity assay, HEK001 keratinocytes. Format: cell-based, human. The note with it: human, HEK001 epidermal keratinocytes, 24 h exposure, MTT, HEK001 keratinocytes; average ± standard deviation; read-out: EC50 from cytotoxicity assay, HEK001. The procedure:
as §1, §2, §4, §5
In general terms: Tetrazolium assays rely on reduction of a dye to a coloured formazan, in cell work by metabolically active cells.

The subject of series [3] is HEK001 cells (human epidermal keratinocytes). Briefly: MTT cytotoxicity assay, HEK001 keratinocytes. Format: cell-based. The conditions noted are these: for EC50: 24 h exposure, MTT, HEK001 keratinocytes, average ± standard deviation, read-out: EC50 from cytotoxicity assay, HEK001; for cytotoxic response at high concentration: HEK001, 100 µM, proliferation could not be observed. The procedure:
as §1, §2, §4, §5

The subject of series [4] is HepG2 cells. Details: method as in Khanal et al., 2012. The conditions noted are these: 125 µM, HepG2, compared to HBA, MeP, and PrP; ref Khanal et al., 2012; cited from earlier work.
Another series deals with red blood cells (RBCs). Details: method as in Ko et al. (2023). The note with it: ref Ko et al. (2023), cited from earlier work.
The test system of the next series is HDFn cells. The arrangement: method as in Kizhedath et al., 2019. The conditions noted are these: 125 µM, ref Kizhedath et al., 2019; cited from earlier work.
Series [5] relates to HepG2 cells. Details: method as in Kizhedath et al., 2019. The conditions noted are these: 125 µM, ref Kizhedath et al., 2019; cited from earlier work.
The next series relates to HaCaT keratinocytes. The arrangement: method as in Couch, 2024; Kinney, 2022. The note with it: 200 µM, ref Couch, 2024, Kinney, 2022; cited from earlier work.
The test system of another series is M624 melanoma cells. The arrangement: method as in Couch, 2024; Kinney, 2022. The note with it: 200 µM, ref Couch, 2024, Kinney, 2022; cited from earlier work.
Setting [6] is: HEK001, 1 µM, versus solvent control.
The mark [7] stands for this setting: HEK001, 10 µM, versus solvent control.
The mark [8] stands for this setting: 24 h exposure, MTT, HMEC-1 endothelial cells, average ± standard deviation.

Each structure is given as a SMILES string. “Also recorded” adds a separate entry of the source.

What is called EC50 is the midpoint of the concentration-response curve. With `O=C(OCc1ccccc1)c1ccc(O)cc1` [BeP, benzylparaben], the results for the “proliferation rate in wound healing assay” value in the series with HEK001 cells (setting [6]), in the series on HEK001 cells (setting [7]) and in the series with HMEC-1 cells were “lower proliferation rates compared to the solvent control”, “proliferation significantly decreased; also recorded: lower proliferation rates compared to the solvent control” and “proliferation rates comparable to those observed in untreated controls”, respectively. The EC50 at 24 h came out at 25.6 ± 3.9 µM in [1] (setting [8]) and 3.34 ± 0.97 µM in series [2]. Also, the “sensitivity at high concentration” value in the series with HMEC-1 cells is “too sensitive to conduct proliferation assays”. In addition, in series [3], the EC50 is 3.3 ± 1 µM. In series [3], the “cytotoxic response at high concentration” value is given as “acutely lethal responses”.
In the case of `CCCCOC(=O)c1ccc(O)cc1` [BuP, butylparaben], the “percentage of apoptotic cells” value in the series on HepG2 cells [4] is on record as “higher percentage of apoptotic cells”. In addition, the “proliferation rate in wound healing assay” value with HEK001 cells (setting [6]) is recorded as “lower proliferation rates compared to the solvent control”; in the series on HEK001 cells (setting [7]), “proliferation significantly decreased; also recorded: lower proliferation rates compared to the solvent control”; in the series on HMEC-1 cells, “proliferation rates comparable to those observed in untreated controls”. For the same compound, the “hemolysis of RBCs” value with red blood cells (RBCs) (500 µM) is “increased hemolysis”. Further, the “extracellular phosphatidylserine of RBCs” value in the series with red blood cells (RBCs) (only BuP among MeP, EtP, PrP, BuP, HBA) is “increase in extracellular phosphatidylserine”. In addition, the cell cycle entry with HDFn cells and in the series on HepG2 cells [5] was “cell cycle arrest in the G1 phase” in each case. Also, the 50% effective concentration (EC50) at 24 h in series [1] (setting [8]) was 75.8 ± 13.4 µM; in series [2], 1.52 ± 0.51 µM. Besides, the “sensitivity at high concentration” value in the series on HMEC-1 cells is on record as “too sensitive to conduct proliferation assays”. Moreover, the 50% effective concentration (EC50) in series [3] was found to be 1.5 ± 0.51 µM. Further, in series [3], the “cytotoxic response at high concentration” value was “acutely lethal responses”.
`COC(=O)c1ccc(O)c(Cl)c1` [CMeP, methyl 3‑chloro-4-hydroxybenzoate]: in the series with HEK001 cells (HEK001, 1–10 µM), the “proliferation rate in wound healing assay” value is “decrease in proliferation”. In [1] (setting [8]), the concentration for a half-maximal effect (EC50) at 24 h was found to be 788 ± 139 µM. Besides, in the series on HMEC-1 cells, the “proliferation rate / wound healing” value was “reduction”, the “proliferation rate relative to baseline / untreated control” value is on record as 20–30% and the “proliferation rate in wound healing assay” value is listed as “proliferation rates comparable to those observed in untreated controls; also recorded: no significant changes in proliferation”. For the same compound, in series [2], the EC50 at 24 h is 2.2 ± 0.8 µM. Further, the “cytotoxic response at high concentration” value in series [3] is listed as “significant cell death”.
Take `COC(=O)c1cc(Br)c(O)c(Br)c1` [DBMeP, methyl 3,5-dibromo-4-hydroxybenzoate]: the “proliferation rate in wound healing assay” value with HEK001 cells (setting [6]) is recorded as “initially reduced proliferation”. Moreover, the “proliferation rate / wound healing” value in the series on HEK001 cells (versus solvent control) was “dose-dependent increase in proliferation”. Further, the “proliferation in wound healing assay” value in the series with HEK001 cells (HEK001, concentrations higher than 1 µM) is recorded as “dose-dependent increase in proliferation”; with HMEC-1 cells (HMEC-1, concentration not stated, high variability), “reduction in proliferation”. Also, the EC50 at 24 h in series [1] (setting [8]) came to 489 ± 86.4 µM; in series [2], 1.49 ± 0.37 µM. Moreover, the “proliferation rate relative to baseline / untreated control” value in the series on HMEC-1 cells was 20–30%. In addition, the EC50 in series [3] stood at 1.5 ± 0.4 µM.
Take `COC(=O)c1cc(Cl)c(O)c(Cl)c1` [DCMeP, methyl 3,5-dichloro-4-hydroxybenzoate]: the “proliferation rate in wound healing assay” value is listed as “decrease in proliferation” in the series with HEK001 cells (HEK001, 1–10 µM) and “no significant changes in proliferation” in the series with HMEC-1 cells. For the same compound, the EC50 at 24 h in series [1] (setting [8]) is over 10000 µM; in [2], 54.5 ± 17.8 µM. Further, the “proliferation rate / wound healing” value in the series on HMEC-1 cells was “reduction”. The “proliferation rate relative to baseline / untreated control” value with HMEC-1 cells is 20–30%. Also, the “cytotoxic response at high concentration” value in series [3] is “significant cell death”.
For `CCOC(=O)c1ccc(O)cc1` [EtP, ethylparaben], the “proliferation rate / wound healing” value in the series on HEK001 cells (versus solvent control) was “substantial decrease in proliferation rates”. The EC50 at 24 h in [1] (setting [8]) came to 171 ± 77.9 µM. In the series with HMEC-1 cells, the “proliferation rate relative to baseline / untreated control” value is reported as 20–30% and the “proliferation rate in wound healing assay” value was “proliferation rates comparable to those observed in untreated controls”. The 50% effective concentration (EC50) at 24 h in series [2] was 536 ± 178 µM.
For `O=C(O)c1ccc(O)cc1` [HBA, 4-hydroxybenzoic acid], the EC50 at 24 h in series [1] (setting [8]) was over 10000 µM; in series [2], 696 ± 245 µM.
For `COC(=O)c1ccc(O)cc1` [MeP, Methyl 4-hydroxybenzoate], the “proliferation rate / wound healing” value in the series on HEK001 cells (versus solvent control) was “substantial decrease in proliferation rates”. For the same compound, in series [1], the 50% effective concentration (EC50) at 24 h is 1090 ± 618 µM. Moreover, in the series with HMEC-1 cells, the “proliferation rate relative to baseline / untreated control” value is recorded as 160% and the “proliferation rate in wound healing assay” value was “proliferation rates comparable to those observed in untreated controls”. For the same compound, the concentration giving a half-maximal response (EC50) at 24 h in series [2] came out at 1310 ± 464 µM.
With `CCCOC(=O)c1ccc(O)cc1` [PrP, propylparaben], the EC50 at 24 h in series [1] (setting [8]) was 102 ± 18 µM. Also, in the series on HMEC-1 cells, the “sensitivity at high concentration” value was “too sensitive to conduct proliferation assays” and the “proliferation rate in wound healing assay” value is “proliferation rates comparable to those observed in untreated controls”. For the same compound, the EC50 at 24 h in series [2] is 17 ± 9.9 µM. Also, the “cytotoxic response at high concentration” value in series [3] was “acutely lethal responses”.
For `CCCCCCCOC(=O)c1ccc(O)cc1` [heptylparaben], the “cell viability, cytochrome C levels, caspase 3” value in the series on HaCaT keratinocytes was “significantly reduced cell viability, increased cytochrome C levels, and activated caspase 3”; with M624 melanoma cells, “significantly reduced cell viability, increased cytochrome C levels, and activated caspase 3”.
